Activity calls are given as the source filed them. The rule behind the calls is not given here.
What was measured:
NSCLC [1] = test: Downregulation of ACLY gene expression in human NSCLC cells by PCR array; assay type: functional, cell-based
NSCLC [2] = test: Upregulation of OGDH gene expression in human NSCLC cells by PCR array; assay type: functional, cell-based
NSCLC [3] = test: Upregulation of ACO2 gene expression in human NSCLC cells by PCR array; assay type: functional, cell-based
NSCLC [4] = test: Downregulation of PHK1 gene expression in human NSCLC cells by PCR array; assay type: functional, cell-based
NSCLC [5] = test: Downregulation of PGK2 gene expression in human NSCLC cells by PCR array; assay type: functional, cell-based
NSCLC [6] = test: Upregulation of DLST gene expression in human NSCLC cells by PCR array; assay type: functional, cell-based
A549 [7] = test: Antitumor activity against human A549 cells xenografted in BALB/c nude mouse assessed as reduction of Ki67 expression level in tumor at 80 mg/kg,ip administered once a week for 3 weeks by immunohistochemistry analysis; assay type: functional, organism-based
NSCLC [8] = test: Downregulation of SUCLG2 gene expression in human NSCLC cells by PCR array; assay type: functional, cell-based
NSCLC [9] = test: Downregulation of RPIA gene expression in human NSCLC cells by PCR array; assay type: functional, cell-based
NSCLC [10] = test: Downregulation of GSK3A gene expression in human NSCLC cells by PCR array; assay type: functional, cell-based
A549 [11] = test: Anti-angiogenic activity against human A549 cells assessed as downregulation of ET-1 expression at 0.5 to 1.5 uM by Western blot analysis; assay type: functional, cell-based; settings: dose 0.5-1.5 µM
NCI-H1975 [12] = test: Induction of apoptosis in human NCI-H1975 cells assessed as increase in Cleaved-caspase3/Caspase3 ratio at 0.5 to 1.5 uM; assay type: functional, cell-based; settings: dose 0.5-1.5 µM
NSCLC [13] = test: Upregulation of PDK2 gene expression in human NSCLC cells by PCR array; assay type: functional, cell-based
NSCLC [14] = test: Upregulation of ALDOC gene expression in human NSCLC cells by PCR array; assay type: functional, cell-based
NSCLC [15] = test: Downregulation of ALDOB gene expression in human NSCLC cells by PCR array; assay type: functional, cell-based
NSCLC [16] = test: Downregulation of PYGL gene expression in human NSCLC cells by PCR array; assay type: functional, cell-based
A549 [17] = test: Anti-angiogenic activity against human A549 cells assessed as downregulation of CD26 expression at 0.5 to 1.5 uM by Western blot analysis; assay type: functional, cell-based; settings: dose 0.5-1.5 µM
NSCLC [18] = test: Downregulation of SUCLA2 gene expression in human NSCLC cells by PCR array; assay type: functional, cell-based
A549 [19] = test: Anti-angiogenic activity against human A549 cells assessed as downregulation of FGF-1 expression at 0.5 to 1.5 uM by Western blot analysis; assay type: functional, cell-based; settings: dose 0.5-1.5 µM
[20] = Cytotoxicity against human BEAS-2B cells assessed as reduction in cell viability incubated for 24 hrs by MTT assay; assay type: toxicity, cell-based
NSCLC [21] = test: Downregulation of IDH3A gene expression in human NSCLC cells by PCR array; assay type: functional, cell-based
NCI-H1975 [22] = test: Anti-angiogenesis activity in human NCI-H1975 cells assessed as inhibition of VEGF secretion at 1 to 1.5 uM by ELISA analysis; assay type: functional, cell-based; settings: dose 1-1.5 µM
NSCLC [23] = test: Upregulation of AGL gene expression in human NSCLC cells by PCR array; assay type: functional, cell-based
NSCLC [24] = test: Upregulation of PC gene expression in human NSCLC cells by PCR array; assay type: functional, cell-based
NSCLC [25] = test: Downregulation of PHKB gene expression in human NSCLC cells by PCR array; assay type: functional, cell-based
NSCLC [26] = test: Upregulation of HK3 gene expression in human NSCLC cells by PCR array; assay type: functional, cell-based
NSCLC [27] = test: Downregulation of MDH1B gene expression in human NSCLC cells by PCR array; assay type: functional, cell-based
A549 [28] = test: Antitumor activity against human A549 cells xenografted in BALB/c nude mouse assessed as tumor growth inhibition at 80 mg/kg, ip administered once a week for 3 weeks; settings: A549, 504 h, read-out: TGI
NSCLC [29] = test: Downregulation of HK2 gene expression in human NSCLC cells by PCR array; assay type: functional, cell-based
NSCLC [30] = test: Upregulation of IDH2 gene expression in human NSCLC cells by PCR array; assay type: functional, cell-based
NSCLC [31] = test: Upregulation of […] gene expression in human NSCLC cells by PCR array; assay type: functional, cell-based
NSCLC [32] = test: Upregulation of PGAM2 gene expression in human NSCLC cells by PCR array; assay type: functional, cell-based
NSCLC [33] = test: Upregulation of PGM2 gene expression in human NSCLC cells by PCR array; assay type: functional, cell-based
NSCLC [34] = test: Upregulation of PCK2 gene expression in human NSCLC cells by PCR array; assay type: functional, cell-based
NSCLC [35] = test: Downregulation of IDH3G gene expression in human NSCLC cells by PCR array; assay type: functional, cell-based
NSCLC [36] = test: Upregulation of GYS1 gene expression in human NSCLC cells by PCR array; assay type: functional, cell-based
NSCLC [37] = test: Downregulation of PDK4 gene expression in human NSCLC cells by PCR array; assay type: functional, cell-based
NSCLC [38] = test: Upregulation of INSR gene expression in human NSCLC cells by PCR array; assay type: functional, cell-based
NSCLC [39] = test: Upregulation of SUCLG1 gene expression in human NSCLC cells by PCR array; assay type: functional, cell-based
NSCLC [40] = test: Downregulation of FH gene expression in human NSCLC cells by PCR array; assay type: functional, cell-based
NSCLC [41] = test: Downregulation of TPI1 gene expression in human NSCLC cells by PCR array; assay type: functional, cell-based
[42] = Cytotoxicity against human HLMVEC cells assessed as reduction in cell viability incubated for 24 hrs by MTT assay; assay type: toxicity, cell-based
NSCLC [43] = test: Upregulation of PHKG1 gene expression in human NSCLC cells by PCR array; assay type: functional, cell-based
HLMVEC [44] = test: Anti-angiogenic activity against human HLMVEC cells assessed as inhibition of VEGFR2 phosphorylation at 0.5 to 1.5 uM by Western blot analysis; assay type: functional, cell-based; settings: dose 0.5-1.5 µM
NSCLC [45] = test: Downregulation of GALM gene expression in human NSCLC cells by PCR array; assay type: functional, cell-based
HLMVEC [46] = test: Anti-angiogenic activity against human HLMVEC cells assessed as inhibition of tubule formation at 0.5 to 1.5 uM and measured after 12 hrs by microscopic analysis; assay type: functional, cell-based; settings: dose 0.5-1.5 µM
NSCLC [47] = test: Upregulation of PHKG2 gene expression in human NSCLC cells by PCR array; assay type: functional, cell-based
NSCLC [48] = test: Upregulation of TKT gene expression in human NSCLC cells by PCR array; assay type: functional, cell-based
NSCLC [49] = test: Upregulation of PYGM gene expression in human NSCLC cells by PCR array; assay type: functional, cell-based
NSCLC [50] = test: Upregulation of FBP2 gene expression in human NSCLC cells by PCR array; assay type: functional, cell-based
NSCLC [51] = test: Downregulation of LDHA gene expression in human NSCLC cells by PCR array; assay type: functional, cell-based
A549 [52] = test: Induction of apoptosis in human A549 cells assessed as increase in Cleaved-caspase3/Caspase3 ratio at 0.5 to 1.5 uM; assay type: functional, cell-based; settings: dose 0.5-1.5 µM
NSCLC [53] = test: Downregulation of G6PD gene expression in human NSCLC cells by PCR array; assay type: functional, cell-based

Cc1cccc(/C=N/NC(=O)c2cccc(NS(=O)(=O)c3c[nH]c(=O)[nH]c3=O)c2)c1
Activity (NSCLC [1]): Active | Activity (NSCLC [2]): Active | Activity (NSCLC [3]): Active | Activity (NSCLC [4]): Active | Activity (NSCLC [5]): Active | Activity (NSCLC [6]): Active | Activity (A549 [7]): Active | Activity (NSCLC [8]): Active | Activity (NSCLC [9]): Active | Activity (NSCLC [10]): Active | Activity (A549 [11]): Active | Activity (NCI-H1975 [12]): Active | Activity (NSCLC [13]): Active | Activity (NSCLC [14]): Active | Activity (NSCLC [15]): Active | Activity (NSCLC [16]): Active | Activity (A549 [17]): Active | Activity (NSCLC [18]): Active | Activity (A549 [19]): Active | CC50 at 24 h [20]: 136 µM | Activity (NSCLC [21]): Active | Activity (NCI-H1975 [22]): Active | Activity (NSCLC [23]): Active | Activity (NSCLC [24]): Active | Activity (NSCLC [25]): Active | Activity (NSCLC [26]): Active | Activity (NSCLC [27]): Active | inhibition in vivo at 80 mg/kg (A549 [28]): 65% | Activity (NSCLC [29]): Active | Activity (NSCLC [30]): Active | Activity (NSCLC [31]): Active | Activity (NSCLC [32]): Active | Activity (NSCLC [33]): Active | Activity (NSCLC [34]): Active | Activity (NSCLC [35]): Active | Activity (NSCLC [36]): Active | Activity (NSCLC [37]): Active | Activity (NSCLC [38]): Active | Activity (NSCLC [39]): Active | Activity (NSCLC [40]): Active | Activity (NSCLC [41]): Active | CC50 at 24 h [42]: > 600 µM | Activity (NSCLC [43]): Active | Activity (HLMVEC [44]): Active | Activity (NSCLC [45]): Active | Activity (HLMVEC [46]): Active | Activity (NSCLC [47]): Active | Activity (NSCLC [48]): Active | Activity (NSCLC [49]): Active | Activity (NSCLC [50]): Active | Activity (NSCLC [51]): Active | Activity (A549 [52]): Active | Activity (NSCLC [53]): Active

Source: ChEMBL document CHEMBL5620429, “Discovery of novel thymidylate synthase (TS) inhibitors that influence cancer angiogenesis and metabolic reprogramming in NSCLC cells” (Eur J Med Chem, 2023)
